Test results from patent US12459951B2, “Compounds that interact with RAS superfamily proteins for treatment of cancers, inflammatory diseases, rasopathies, and fibrotic disease” (SHY Therapeutics, LLC, priority 2022, dated 2025).

biological target: T1, cdc42 (Homo sapiens, UniProt P60953); assay: Cdc42 GTP Binding Domain Inhibition Assay; settings: read-out: Cdc42: % inh.
T1 construct: made in house
Experimental: Protocol for Cdc42 and Rheb GTP Binding Domain Inhibition Assay
The following method was developed as specific assay for cdc42 and Rheb proteins.
• 25 mM Tris-HCl, pH 7.4 • 27 mM KCl • 137 mM NaCl • 1 mM MgCl2 • 1 mM DTT Buffer-II: • 50 mM Tris-HCl, pH 7.0 • 1 mM MgCl2 • 1 mM DTT
The small GTPases proteins cdc42 and Rheb were expressed as His-tagged proteins. For the assay, the cdc42 and Rheb purified small GTPases proteins were diluted in Buffer-I or Buffer-II to a final concentration of 10-30 μg/mL. 200 μL of each diluted protein was added to a nickel-coated 96-well plate and incubated overnight at […]. Then the protein solution was discarded and 200 μL of Buffer-I or Buffer-II was added to each well in the presence of 1% DMSO. Compounds to be tested were added to the protein-coated wells at final concentration of 20 μM, and incubated for 3 hours at room temperature with and without 10-30 μg/mL of Sos added to the final hour of the incubation. When performing IC50 measurements a serial dilution of all tested concentrations was added. Then Cy3-GTP or Cy5-GTP was added to each well to a final concentration of 100 nM. The labeled GTP was incubated for 45 minutes at room temperature. Following GTP incubation, wells were washed 3× in Buffer-I or Buffer-II and 200 μL of Buffer-I or Buffer-II was added to each well. Following washes, the amount of bound labeled-GTP was measured using a SpectraMax M3 (Molecular Devices).

T1 sequence (P60953 whole entry, the tested form may be a part): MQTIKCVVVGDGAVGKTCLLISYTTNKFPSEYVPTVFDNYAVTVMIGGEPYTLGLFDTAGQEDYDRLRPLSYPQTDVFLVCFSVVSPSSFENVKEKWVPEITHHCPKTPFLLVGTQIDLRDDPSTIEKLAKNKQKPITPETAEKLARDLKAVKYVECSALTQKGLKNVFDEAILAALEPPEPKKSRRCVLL

inhibition at 20 µM	SMILES
1 to 25%	COc1cccc(-c2cn3nc(-c4nccn4C)nc(N[C@H]4C[C@H](OC)C4)c3c2-c2ccn(C)n2)c1F [Compound 47, 6-(2-Fluoro-3-methoxyphenyl)-N-((1r,3r)-3-methoxycyclobutyl)-2-(1-methyl-1H-imidazol-2-yl)-5-(1-methyl-1H-pyrazol-3-yl)pyrrolo[2,1-f][1,2,4]triazin-4-amine]
0%	Cc1c(-c2ccn(C(C)C)n2)cn2nc(-c3nccn3C)nc(Nc3cc(C4CC4)no3)c12 [Compound 69, 3-Cyclopropyl-N-(6-(1-isopropyl-1H-pyrazol-3-yl)-5-methyl-2-(1-methyl-1H-imidazol-2-yl)pyrrolo[2,1-f][1,2,4]triazin-4-yl)isoxazol-5-amine]
0%	COc1ccc(Nc2nc(-c3nccn3C)nn3cc(-c4ccn(C(C)C)n4)c(C)c23)nn1 [Compound 74, 6-(1-Isopropyl-1H-pyrazol-3-yl)-N-(6-methoxypyridazin-3-yl)-5-methyl-2-(1-methyl-1H-imidazol-2-yl)pyrrolo[2,1-f][1,2,4]triazin-4-amine]
50 to 75%	Cc1c(-c2ccn(C(C)C)n2)cn2nc(-c3nccn3C)nc(Nc3ccn(C(C)C)n3)c12 [Compound 72, N,6-bis(1-Isopropyl-1H-pyrazol-3-yl)-5-methyl-2-(1-methyl-1H-imidazol-2-yl)pyrrolo[2,1-f][1,2,4]triazin-4-amine]
50 to 75%	COc1cncnc1Nc1nc(-c2nccn2C)nn2cc(-c3ccn(C(C)C)n3)c(C)c12 [Compound 73, 6-(1-Isopropyl-1H-pyrazol-3-yl)-N-(5-methoxypyrimidin-4-yl)-5-methyl-2-(1-methyl-1H-imidazol-2-yl)pyrrolo[2,1-f][1,2,4]triazin-4-amine]
50 to 75%	COc1cc(Nc2nc(-c3nccn3C)nn3cc(-c4cccnc4)c(C)c23)ncn1 [Compound 48, N-(6-Methoxypyrimidin-4-yl)-5-methyl-2-(1-methyl-1H-imidazol-2-yl)-6-(pyridin-3-yl)pyrrolo[2,1-f][1,2,4]triazin-4-amine]
76 to 100%	Cc1c(-c2ccn(C(C)C)n2)cn2nc(-c3nccn3C)nc(Nc3cc(C4CC4)n[nH]3)c12 [Compound 68, N-(3-Cyclopropyl-1H-pyrazol-5-yl)-6-(1-isopropyl-1H-pyrazol-3-yl)-5-methyl-2-(1-methyl-1H-imidazol-2-yl)pyrrolo[2,1-f][1,2,4]triazin-4-amine]
1 to 25%	COc1cc(Nc2nc(-c3nccn3C)nn3cc(-c4ccncc4)c(C)c23)ncn1 [Compound 49, N-(6-Methoxypyrimidin-4-yl)-5-methyl-2-(1-methyl-1H-imidazol-2-yl)-6-(pyridin-4-yl)pyrrolo[2,1-f][1,2,4]triazin-4-amine]

tested on: JNK phosphorylation; assay: JNK Activation Assay (western blot), Panc-1; assay type: cell-based, human; settings: at 10 μM, Panc-1 pancreatic cancer cell line; starred symbols = activation
Experimental: Protocol for JNK Activation Assay
This assay is referred to as the “JNK Activation Assay” throughout this application.
Cell lines: Human tumor-derived pancreatic cancer cell line Panc-1 (expressing KRas […] mutant) was purchased from American Type Culture Collection and grown in complete DMEM-High Glucose medium, supplemented with penicillin (100 U/mL), streptomycin (100 μg/mL), and 10% heat-inactivated FBS at 37° C. in a humidified incubator with 5% CO2.
Method 1: Cells were plated at 350000 cells/well density in a 12-well plate, allowed 3 hours to adhere to the plate, then starved in the appropriate medium in the presence of 0.5% FBS overnight. The small molecules to be tested were added to the cells in the final concentration of 10 μM in the presence of 0.3% DMSO for 6 hours incubation at 37° C. For IC50 value determination, serial dilutions of compounds were added to cells under the same conditions. Next, cells were stimulated with 1.5 ng/ml EGF for 15 minutes then cells were lysed with lysis buffer containing 1% Triton X-100, EDTA, and Halt™ Protease & Phosphatase Inhibitor Cocktail (Thermo Scientific). Protein concentration was assessed by BCA protein assay (Thermo Scientific). Phosphorylation level of JNK was determined by western blot.
Method 2: Cells were plated at 350000 cells/well density in a 12-well plate in the presence of 10% FBS. The next day small molecules to be tested were added to the cells in the final concentration of 10 μM in the presence of 0.3% DMSO for 6 hours incubation at 37° C. For IC50 value determination, serial dilutions of compounds were added to cells under the same conditions. Next, cells were lysed with lysis buffer containing 1% Triton X-100, EDTA, and Halt™ Protease & Phosphatase Inhibitor Cocktail (Thermo Scientific). Protein concentration was assessed by BCA protein assay (Thermo Scientific). Phosphorylation level of JNK was determined by western blot.
Western blot protocol: Equal amounts of protein (15-50 μg) were separated by SDS-PAGE and transferred to nitrocellulose membranes (Invitrogen by Thermo Fisher Scientific). The membrane was stained with Ponceau S Stain (Boston BioProducts) to verify uniform protein loading. Membranes were blocked with 10% milk and phosphorylation levels of JNK were assessed by incubating overnight at 4° C. with the antibody Phospho-SAPK/JNK (Thr183/Tyr185), from Cell Signaling Technology. Then the membranes were incubated with HRP-conjugated secondary antibody (Jackson Immunoresearch, West Grove, PA). Bands were incubated in Amersham ECL Prime Western Blotting Detection Reagent (GE Healthcare) and visualized using the ChemiDoc MP imaging system (Bio-Rad).

SMILES	% inh of JNK in Panc-1
COc1cccc(-c2cn3nc(-c4nccn4C)nc(N[C@@H]4CC[C@H](OC)C4)c3c2-c2ccccc2)c1Cl (racemic) [Compound 33, rac 6-(2-Chloro-3-methoxyphenyl)-N-((1R,3S)-3-methoxycyclopentyl)-2-(1-methyl-1H-imidazol-2-yl)-5-phenylpyrrolo[2,1-f][1,2,4]triazin-4-amine]	G (G = 75-99% inhibition)
COC[C@@H]1CC[C@@H]1CNc1nc(-c2ccccn2)nn2cc(-c3ccn(C(C)C)n3)c(-c3ccccc3)c12 (racemic) [Compound 26, rac 6-(1-Isopropyl-1H-pyrazol-3-yl)-N-(((1S,2R)-2-(methoxymethyl)cyclobutyl)methyl)-5-phenyl-2-(pyridin-2-yl)pyrrolo[2,1-f][1,2,4]triazin-4-amine]	H* (H* ≥ 100% activation)
COc1cccc(-c2cn3nc(-c4nccn4C)nc(O)c3c2-c2ccccc2)c1Cl [Compound 28, 6-(2-Chloro-3-methoxyphenyl)-2-(1-methyl-1H-imidazol-2-yl)-5-phenylpyrrolo[2,1-f][1,2,4]triazin-4-ol]	H* (H* ≥ 100% activation)
COc1cccc(-c2cn3nc(-c4nccn4C)nc(N[C@H]4C[C@H](OC)C4)c3c2-c2ccn(C)n2)c1F [Compound 47, 6-(2-Fluoro-3-methoxyphenyl)-N-((1r,3r)-3-methoxycyclobutyl)-2-(1-methyl-1H-imidazol-2-yl)-5-(1-methyl-1H-pyrazol-3-yl)pyrrolo[2,1-f][1,2,4]triazin-4-amine]	H* (H* ≥ 100% activation)
Cc1c(-c2ccn(C(C)C)n2)cn2nc(-c3nccn3C)nc(Nc3cc(C4CC4)no3)c12 [Compound 69, 3-Cyclopropyl-N-(6-(1-isopropyl-1H-pyrazol-3-yl)-5-methyl-2-(1-methyl-1H-imidazol-2-yl)pyrrolo[2,1-f][1,2,4]triazin-4-yl)isoxazol-5-amine]	H* (H* ≥ 100% activation)
CO[C@H]1CC[C@@H](Nc2nc(-c3ccccn3)nn3cc(-c4ccn(C(C)C)n4)c(-c4ccccc4)c23)C1 (racemic) [Compound 24, rac 6-(1-Isopropyl-1H-pyrazol-3-yl)-N-((1R,3S)-3-methoxycyclopentyl)-5-phenyl-2-(pyridin-2-yl)pyrrolo[2,1-f][1,2,4]triazin-4-amine]	H* (H* ≥ 100% activation)
Cc1c(-c2ccn(C(C)C)n2)cn2nc(-c3nccn3C)nc(Nc3ccn(C(C)C)n3)c12 [Compound 72, N,6-bis(1-Isopropyl-1H-pyrazol-3-yl)-5-methyl-2-(1-methyl-1H-imidazol-2-yl)pyrrolo[2,1-f][1,2,4]triazin-4-amine]	H* (H* ≥ 100% activation)
COc1cccc(-c2cn3nc(-c4nccn4C)nc(N[C@H]4C[C@@H](OC)C4)c3c2-c2ccccc2)c1Cl [Compound 31, 6-(2-Chloro-3-methoxyphenyl)-N-((1s,3s)-3-methoxycyclobutyl)-2-(1-methyl-1H-imidazol-2-yl)-5-phenylpyrrolo[2,1-f][1,2,4]triazin-4-amine]	H* (H* ≥ 100% activation)
COC1CCCN(c2nc(-c3ccccn3)nn3cc(-c4ccn(C(C)C)n4)c(-c4ccccc4)c23)C1 (racemic) [Compound 27, rac 6-(1-Isopropyl-1H-pyrazol-3-yl)-4-(3-methoxypiperidin-1-yl)-5-phenyl-2-(pyridin-2-yl)pyrrolo[2,1-f][1,2,4]triazine]	H* (H* ≥ 100% activation)
COCCCNc1nc(-c2nccn2C)nn2cc(-c3cccc(OC)c3Cl)c(-c3ccccc3)c12 [Compound 30, 6-(2-Chloro-3-methoxyphenyl)-N-(3-methoxypropyl)-2-(1-methyl-1H-imidazol-2-yl)-5-phenylpyrrolo[2,1-f][1,2,4]triazin-4-amine]	F (F = 31-74% inhibition)
COCC1CCN(c2nc(-c3ccccn3)nn3cc(-c4ccn(C(C)C)n4)c(-c4ccccc4)c23)C1 (racemic) [Compound 25, rac 6-(1-Isopropyl-1H-pyrazol-3-yl)-4-(3-(methoxymethyl)pyrrolidin-1-yl)-5-phenyl-2-(pyridin-2-yl)pyrrolo[2,1-f][1,2,4]triazine]	H* (H* ≥ 100% activation)
COCCNc1nc(-c2nccn2C)nn2cc(-c3ccn(C(C)C)n3)c(C(C)C)c12 [Compound 35, 5-Isopropyl-6-(1-isopropyl-1H-pyrazol-3-yl)-N-(2-methoxyethyl)-2-(1-methyl-1H-imidazol-2-yl)pyrrolo[2,1-f][1,2,4]triazin-4-amine]	H* (H* ≥ 100% activation)
COc1cccc(Nc2nc(-c3nccn3C)nn3cc(-c4ccn(C(C)C)n4)c(-c4ccccc4)c23)n1 [Compound 23, 6-(1-Isopropyl-1H-pyrazol-3-yl)-N-(6-methoxypyridin-2-yl)-2-(1-methyl-1H-imidazol-2-yl)-5-phenylpyrrolo[2,1-f][1,2,4]triazin-4-amine]	H* (H* ≥ 100% activation)
COCCNc1nc(-c2nccn2C)nn2cc(-c3cccc(OC)c3Cl)c(-c3ccccc3)c12 [Compound 29, 6-(2-Chloro-3-methoxyphenyl)-N-(2-methoxyethyl)-2-(1-methyl-1H-imidazol-2-yl)-5-phenylpyrrolo[2,1-f][1,2,4]triazin-4-amine]	H (H = 100% inhibition)
CO[C@H]1CC[C@@H](Nc2nc(-c3nccn3C)nn3cc(-c4ccn(C(C)C)n4)c(C(C)C)c23)C1 (racemic) [Compound 36, rac 5-Isopropyl-6-(1-isopropyl-1H-pyrazol-3-yl)-N-((1R,3S)-3-methoxycyclopentyl)-2-(1-methyl-1H-imidazol-2-yl)pyrrolo[2,1-f][1,2,4]triazin-4-amine]	H* (H* ≥ 100% activation)
